# Legend:
# SETFA = assay: greenhouse experiment, post-emergence treatment; type: in vivo, Setaria faberi; settings: post-emergence method, application rate 3.0 kg/ha, scale from 0 to 100
# Description: (§1) The seeds of the test plants were sown separately for each species. For the post-emergence treatment, the test plants were first grown to a height of 3 to 15 cm, depending on the plant habit, and then treated with the active compounds which had been suspended or emulsified in water. For this purpose, the test plants were either sown directly and grown in the same containers, or they were first grown separately as seedlings and transplanted into the test containers a few days prior to treatment. Depending on the species, the plants were kept at 10-25° C. or 20-35° C. The test period extended over 2 to 4 weeks. During this time, the plants were tended, and their response to the individual treatments was evaluated. Evaluation was carried out using a scale from 0 to 100. 100 means no emergence of the plants, or complete destruction of at least the aerial moieties, and 0 means no damage, or normal course of growth. A good herbicidal activity is given at values of at least 70 and a very good herbicidal activity is given at values of at least 85. [table]
# AVEFA = assay: greenhouse experiment, post-emergence treatment; type: in vivo, Avena fatua; settings: post-emergence method, application rate 3.0 kg/ha, scale from 0 to 100
# Description: as §1
# SETIT = assay: greenhouse experiment, pre-emergence treatment; type: in vivo, Setaria italica; settings: pre-emergence method, application rate 3.0 kg/ha, scale from 0 to 100
# Description: The seeds of the test plants were sown separately for each species. For the pre-emergence treatment, the active compounds, which had been suspended or emulsified in water, were applied directly after sowing by means of finely distributing nozzles. The containers were irrigated gently to promote germination and growth and subsequently covered with transparent plastic hoods until the plants had rooted. This cover caused uniform germination of the test plants, unless this has been impaired by the active compounds. Depending on the species, the plants were kept at 10-25° C. or 20-35° C. The test period extended over 2 to 4 weeks. During this time, the plants were tended, and their response to the individual treatments was evaluated. Evaluation was carried out using a scale from 0 to 100. 100 means no emergence of the plants, or complete destruction of at least the aerial moieties, and 0 means no damage, or normal course of growth. A good herbicidal activity is given at values of at least 70 and a very good herbicidal activity is given at values of at least 85. [table]
# ABUTH = assay: greenhouse experiment, post-emergence treatment; type: in vivo, Abutilon theophrasti; settings: post-emergence method, application rate 3.0 kg/ha, scale from 0 to 100
# Description: as §1
smiles,measurement,setting,value
"O=c1oc2nccnc2c(O)c1-c1ccccc1C(F)(F)F [example 1, 8-Hydroxy-7-(2-trifluoromethylphenyl)pyrano[2,3-b]pyrazin-6-one]",herbicidal activity against SETFA,SETFA,good herbicidal activity (A good herbicidal activity is given at values of at least 70)
same,herbicidal activity against AVEFA,AVEFA,good herbicidal activity (A good herbicidal activity is given at values of at least 70)
same,herbicidal activity against SETIT,SETIT,very good herbicidal activity (a very good herbicidal activity is given at values of at least 85)
same,herbicidal activity against ABUTH,ABUTH,good herbicidal activity (A good herbicidal activity is given at values of at least 70)

# Source: US20120071322A1, “Substituted Pyridopyrazines with a Herbicidal Action” (BASF SE, priority 2009, published 2012)
